Test results taken from ChEMBL document CHEMBL1201862, “PubChem BioAssay data set” (2004).
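Briefly, cells in 96-well plates were exposed to five compound concentrations for 48 h, and endpoints were estimated by linear interpolation. GI50: concentration for 50% inhibition of growth.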 Active and inactive are the calls of the source. Rule as the data show it: active = GI50 up to about 1.1 µM and inactive = higher.

Experiments:
Experiment in all cases: inhibition of tumour cell growth, NCI panel, 48 h
OVCAR-5 = system: OVCAR-5
U-251 = system: U-251
SF-295 = system: SF-295
TK-10 = system: TK-10
COLO 205 = system: COLO 205
SK-MEL-28 = system: SK-MEL-28
OVCAR-8 = system: OVCAR-8
LOX IMVI = system: LOX IMVI
CAKI-1 = system: CAKI-1
SW-620 = system: SW-620
HL-60 = system: HL-60
HCC 2998 = system: HCC 2998
CCRF-CEM = system: CCRF-CEM
NCI-H23 = system: NCI-H23
786-0 = system: 786-0
SN12C = system: SN12C
SR = system: SR
SF-268 = system: SF-268
NCI-H226 = system: NCI-H226

Measured: GI50

COC(=O)C1CCc2c(OC)ccc(OC)c2C1=O (centres undefined)
inactive: OVCAR-5 > 100 µM | U-251 > 100 µM | SF-295 > 100 µM | TK-10 > 100 µM | COLO 205 > 100 µM | SK-MEL-28 > 100 µM | OVCAR-8 > 100 µM | LOX IMVI > 100 µM | CAKI-1 > 100 µM | SW-620 > 100 µM | HL-60 > 100 µM | HCC 2998 > 100 µM | CCRF-CEM > 100 µM | NCI-H23 > 100 µM | 786-0 > 100 µM

COc1cc2c3c(c1OC)C1(C=CC(=O)C=C1)CC3N(C(=O)OC(C)(C)C(Cl)(Cl)Cl)CC2 (centres undefined)
inactive: OVCAR-5 2.52 µM | U-251 10.5 µM | SN12C 11.6 µM | SR 3.5 µM | SF-295 13.4 µM | SF-268 13.1 µM | TK-10 43.2 µM | COLO 205 12.4 µM | OVCAR-8 8.85 µM | LOX IMVI 10.1 µM | CAKI-1 14.9 µM | SW-620 18.3 µM | HL-60 1.95 µM | CCRF-CEM 7.73 µM | NCI-H23 16.4 µM | NCI-H226 15.9 µM | 786-0 14.2 µM

COc1ccc2ccccc2c1C1=NC(C)(C)CO1
inactive: U-251 > 100 µM | SN12C > 100 µM | SR > 100 µM | SF-295 > 100 µM | SF-268 > 100 µM | TK-10 > 100 µM | COLO 205 > 100 µM | SK-MEL-28 > 100 µM | OVCAR-8 > 100 µM | CAKI-1 > 100 µM | SW-620 > 100 µM | HL-60 > 100 µM | CCRF-CEM > 100 µM | NCI-H23 > 100 µM | NCI-H226 > 100 µM | 786-0 > 100 µM

O=C(CC(=O)C1CCOC1=O)C(=O)Nc1cccc(Cl)c1 (centres undefined)
inactive: OVCAR-5 > 100 µM | U-251 > 100 µM | SN12C > 100 µM | SF-295 > 100 µM | SF-268 > 100 µM | TK-10 > 100 µM | COLO 205 > 100 µM | SK-MEL-28 > 100 µM | OVCAR-8 > 100 µM | LOX IMVI > 100 µM | CAKI-1 > 100 µM | SW-620 > 100 µM | HL-60 > 100 µM | HCC 2998 > 100 µM | NCI-H23 > 100 µM | NCI-H226 > 100 µM | 786-0 > 100 µM

Cc1ccc(-c2nc3ccccc3c(=O)n2NC2OC(CO)C(O)C(O)C2O)cc1 (centres undefined)
inactive: OVCAR-5 > 100 µM | U-251 > 100 µM | SN12C > 100 µM | SF-295 > 100 µM | SF-268 > 100 µM | TK-10 > 100 µM | COLO 205 > 100 µM | SK-MEL-28 > 100 µM | OVCAR-8 > 100 µM | CAKI-1 39.6 µM | SW-620 > 100 µM | HL-60 > 100 µM | HCC 2998 > 100 µM | CCRF-CEM > 100 µM | NCI-H23 > 100 µM | NCI-H226 > 100 µM | 786-0 > 100 µM

CC1=NN(C(=O)c2ccc(Cl)cc2)C(=O)/C1=C/c1ccccc1O
inactive: OVCAR-5 > 100 µM | U-251 > 100 µM | SN12C > 100 µM | SF-295 > 100 µM | SF-268 > 100 µM | TK-10 > 100 µM | COLO 205 > 100 µM | SK-MEL-28 > 100 µM | OVCAR-8 > 100 µM | LOX IMVI > 100 µM | CAKI-1 > 100 µM | SW-620 > 100 µM | HL-60 > 100 µM | HCC 2998 > 100 µM | CCRF-CEM > 100 µM | NCI-H23 > 100 µM | 786-0 > 100 µM

CN(C)c1ccc(/C=C/C=C\c2cc(/C=C/C=C/c3ccc(N(C)C)cc3)[s+]c3ccccc23)cc1.[O-][Cl+3]([O-])([O-])[O-]
inactive: OVCAR-5 > 100 µM | U-251 10 µM | SN12C > 100 µM | SF-295 > 100 µM | SF-268 > 100 µM | TK-10 > 100 µM | COLO 205 29.3 µM | SK-MEL-28 14.2 µM | OVCAR-8 57.9 µM | LOX IMVI 20.1 µM | CAKI-1 10 µM | SW-620 63.4 µM | HL-60 4.53 µM | NCI-H23 10 µM | NCI-H226 > 100 µM | 786-0 90.6 µM

O=C(O)c1ccc(NC(=O)C2C(=O)C(=O)N(c3ccc(C(=O)O)cc3)C2=O)cc1 (centres undefined)
inactive: OVCAR-5 > 100 µM | U-251 > 100 µM | SN12C > 100 µM | SF-295 > 100 µM | SF-268 > 100 µM | TK-10 > 100 µM | COLO 205 > 100 µM | SK-MEL-28 > 100 µM | OVCAR-8 > 100 µM | LOX IMVI > 100 µM | CAKI-1 > 100 µM | SW-620 > 100 µM | HL-60 > 100 µM | HCC 2998 > 100 µM | CCRF-CEM > 100 µM | NCI-H23 > 100 µM | NCI-H226 > 100 µM | 786-0 > 100 µM

NC(CCC(=O)NC(CSSCCCCS(=O)O)C(=O)NCC(=O)O)C(=O)O (centres undefined)
inactive: OVCAR-5 > 100 µM | U-251 > 100 µM | SN12C > 100 µM | SF-295 > 100 µM | SF-268 > 100 µM | TK-10 > 100 µM | COLO 205 > 100 µM | SK-MEL-28 > 100 µM | OVCAR-8 > 100 µM | LOX IMVI > 100 µM | CAKI-1 > 100 µM | SW-620 > 100 µM | HCC 2998 > 100 µM | CCRF-CEM > 100 µM | NCI-H23 > 100 µM | 786-0 > 100 µM

CC(=O)C(CN(Cc1ccccc1)Cc1ccccc1)C(c1ccccc1)c1c(O)c2ccccc2oc1=O (centres undefined)
inactive: OVCAR-5 > 100 µM | U-251 > 100 µM | SN12C > 100 µM | SR > 100 µM | SF-295 > 100 µM | SF-268 > 100 µM | TK-10 > 100 µM | OVCAR-8 > 100 µM | LOX IMVI > 100 µM | CAKI-1 > 100 µM | SW-620 71.4 µM | HL-60 > 100 µM | CCRF-CEM > 100 µM | NCI-H23 > 100 µM | NCI-H226 > 100 µM | 786-0 > 100 µM

COC(=O)c1ccccc1NC(=O)C(=O)Cc1nc2c3c(ccc2nc1O)C(=O)c1ccccc1C3=O
inactive: OVCAR-5 79.4 µM | U-251 17.1 µM | SN12C 29.6 µM | SF-268 6.38 µM | TK-10 23.8 µM | COLO 205 15.8 µM | SK-MEL-28 15.7 µM | OVCAR-8 24.3 µM | LOX IMVI 12.5 µM | CAKI-1 10.9 µM | SW-620 5.56 µM | HCC 2998 16.8 µM | CCRF-CEM 3.75 µM | NCI-H23 11.5 µM | NCI-H226 4.48 µM | 786-0 16.2 µM

COc1ccc(C2C(Cl)C(=O)N2NC(=O)c2ccccc2O)cc1OC (centres undefined)
inactive: U-251 92.3 µM | SN12C > 100 µM | SF-295 51.8 µM | SF-268 54.2 µM | TK-10 > 100 µM | SK-MEL-28 > 100 µM | OVCAR-8 93.1 µM | LOX IMVI 36.5 µM | HL-60 41 µM | CCRF-CEM 31.6 µM | NCI-H23 > 100 µM | NCI-H226 > 100 µM | 786-0 > 100 µM
